Columns and labels:
[1] = system: cocaine-induced increases in synaptic dopamine; experiment: MicroPET imaging of [11C]-raclopride binding after cocaine; assay type: in vivo, rat; settings: cocaine alone, average
GABA transport = settings: cited from earlier work
[2] = system: succinic semialdehyde dehydrogenase; settings: cited from earlier work
white matter of the CNS = settings: characterized as intramyelinic edema; cited from earlier work
Sprague-Dawley rats = settings: Vigabatrin/Cocaine, vigabatrin 300 mg/kg; ref Dewey et al.[7]; cited from earlier work
alanine aminotransferase = settings: cited from earlier work
subjects = settings: trial of 103 subjects, placebo 7.5%; cited from earlier work
patients = settings: following chronic administration; cited from earlier work

Compound | reduction of [11C]-raclopride binding [1] | action on GABA reuptake (GABA transport) | implicit times of the ERGs (Wistar albino rats; CPP-115 20 mg/kg, vigabatrin 200 mg/kg) | clinical observation in the first three weeks of treatment (Wistar albino rats; CPP-115 20 mg/kg, vigabatrin 200 mg/kg daily i.p.) | 10 Hz flicker ERGs compared to both CPP-115 and controls (Wistar albino rats; both sexes, both time points, data not shown) | rod, mesopic, and cone b-wave implicit times compared to controls or CPP-115 (Wistar albino rats; females, 200 mg/kg, data not shown) | effect on succinic semialdehyde dehydrogenase activity in vivo [2] | CNS histopathological finding (white matter of the CNS) | Time in chamber (min) unpaired (Sprague-Dawley rats) | effect on alanine aminotransferase activity in vivo (alanine aminotransferase) | subjects who achieved abstinence (subjects) | patients with visual field defects (VFDs) (patients)
COC(=O)[C@H]1[C@@H](OC(=O)c2ccccc2)C[C@@H]2CC[C@H]1N2C [Cocaine, reference compound] | 22% |  |  |  |  |  |  |  |  |  |  | 
C=CC(N)CCC(=O)O (stereo not drawn) [Vigabatrin, vigabatrin] |  | GABA reuptake inhibitor | little or no drug effect | sedative effects | significantly lower | significantly increased | reduce activities | microvacuolization in the white matter of the CNS | 7.1 ± 0.6 min | reduce activities | 28% | 25–50%

Reference: publication PMC3257419 (Journal of Medicinal Chemistry, 2011)
